Assay results: the supplement of paper PMC10307832

Assays:
Experiment in all cases: relative viability (nuclei count vs DMSO), 5 days (fraction); higher = more cells survive
[1] = compound: Cc1ccc(NC(=O)c2ccc(CN3CCN(C)CC3)cc2)cc1Nc1nc(-c2cccnc2)cs1 [Masitinib] + CC(=O)Nc1cccc(-n2c(=O)n(C3CC3)c(=O)c3c(Nc4ccc(I)cc4F)n(C)c(=O)c(C)c32)c1 [Trametinib] (partner 0.02 µM)
Outline: (§1)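 Lung cancer cell lines were seeded in 1536-well plates and dosed by pin tool the next day, with either a single drug or a fixed anchor-drug dose combined with five library-drug doses (not always all listed) spaced in √10 steps. Five days later, one step fixed the cells and stained their nuclei (final 0.05% Triton X-100, 1% formaldehyde, 1 ug/ml Hoechst), and nuclei were counted on 4× images. Relative viability is the nuclei count in treated wells divided by the count in vehicle wells, and each value is the median of duplicate plates.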

[2] = compound: Cc1ccc(NC(=O)c2ccc(CN3CCN(C)CC3)cc2)cc1Nc1nc(-c2cccnc2)cs1 [Masitinib] + C[C@@H](Oc1cc(-c2cnn(C3CCNCC3)c2)cnc1N)c1c(Cl)ccc(F)c1Cl [Crizotinib] (partner 1 µM)
Outline: as §1

[3] = compound: Cc1ccc(NC(=O)c2ccc(CN3CCN(C)CC3)cc2)cc1Nc1nc(-c2cccnc2)cs1 [Masitinib] + COc1cccc2cc(-c3nc([C@H]4CC[C@H](C(=O)O)CC4)n4ncnc(N)c34)[nH]c12 [OSI-027] (partner 0.5 µM)
Outline: as §1

[4] = compound: CC1=CC(=CC=C1)NC2=NC(=CS2)C3=CC=NC=C3 + O=C(c1cc(Cc2n[nH]c(=O)c3ccccc23)ccc1F)N1CCN(C(=O)C2CC2)CC1 [Olaparib] (partner 8 µM)
Outline: as §1

Cell Line | relative viability ([1]; first compound 0.01 µM) | relative viability ([1]; first compound 0.03162 µM) | relative viability ([1]; first compound 0.1 µM) | relative viability ([1]; first compound 0.3162 µM) | relative viability ([1]; first compound 1 µM) | relative viability ([2]; first compound 0.01 µM) | relative viability ([2]; first compound 0.03162 µM) | relative viability ([2]; first compound 0.1 µM) | relative viability ([2]; first compound 0.3162 µM) | relative viability ([2]; first compound 1 µM) | relative viability ([3]; first compound 0.01 µM) | relative viability ([3]; first compound 0.03162 µM) | relative viability ([3]; first compound 0.1 µM) | relative viability ([3]; first compound 0.3162 µM) | relative viability ([3]; first compound 1 µM) | relative viability ([4]; first compound 0.08 µM) | relative viability ([4]; first compound 0.253 µM) | relative viability ([4]; first compound 0.8 µM) | relative viability ([4]; first compound 2.53 µM) | relative viability ([4]; first compound 8 µM)
EPLC-272H | 0.28 | 0.35 | 0.376 | 0.268 | 0.237 | 0.881 | 0.81 | 0.803 | 0.842 | 0.871 | 0.257 | 0.274 | 0.281 | 0.315 | 0.286 | 0.79 | 0.673 | 0.551 | 0.687 | 0.619
NCI-H1975 | 0.302 | 0.364 | 0.374 | 0.237 | 0.323 | 0.948 | 0.88 | 1.06 | 0.872 | 0.926 | 0.937 | 0.793 | 0.864 |  | 0.509 | 0.747 | 0.442 | 0.458 | 0.395 | 0.235
NCI-H3122 | 0.26 | 0.243 | 0.24 | 0.267 | 0.168 | 0.26 | 0.252 | 0.306 | 0.217 | 0.253 |  | 1.38 |  | 0.969 | 1.09 | 0.578 | 0.591 | 0.548 | 0.587 | 0.457
NCI-H441 | 0.5 | 0.488 | 0.547 | 0.336 | 0.397 | 0.741 | 0.804 | 0.919 | 0.665 | 0.696 | 0.654 | 0.628 | 0.798 | 0.717 | 0.429 | 0.564 | 0.52 | 0.571 | 0.688 | 0.521
NCI-H358 | 0.148 | 0.13 | 0.135 | 0.121 | 0.122 | 0.406 | 0.534 | 0.588 | 0.473 | 0.533 | 0.85 | 0.762 | 0.859 | 0.665 | 0.731 | 0.547 | 0.519 | 0.521 | 0.5 | 0.521
SK-MES-1 | 0.519 | 0.528 | 0.561 | 0.485 | 0.514 | 0.912 | 1.01 | 1.02 | 1.02 | 0.983 | 0.615 | 0.668 | 0.684 | 0.52 | 0.651 | 0.423 | 0.437 | 0.466 | 0.457 | 0.401
PC-14 | 0.774 | 0.634 | 0.909 | 0.729 | 0.821 | 0.787 | 0.817 | 0.901 | 0.723 | 0.829 | 0.887 | 0.794 | 0.822 | 0.875 | 0.826 | 0.298 | 0.289 | 0.289 | 0.238 | 0.162
CAL-12T | 0.374 | 0.347 | 0.325 | 0.307 | 0.419 | 0.625 | 0.472 | 0.623 | 0.66 | 0.464 | 0.682 | 0.554 | 0.705 | 0.404 | 0.536 | 0.614 | 0.677 | 0.609 | 0.792 | 0.617
